IC50 data for 60 molecules are collected here from PubChem BioAssay AID602378 (Sanford-Burnham Center for Chemical Genomics, 2012).

For orientation: IC50 means the concentration that gives 50% inhibition.

The source made the active and inactive calls. No rule for the calls is given here.

The assay concerns S. cerevisiae tim10-1 mutant yeast, luminescence growth read-out. As to the kind of experiment: growth inhibition of tim10-1 mutant yeast, SAR follow-up, counter-screen for tim23-1 inhibitor project, luminescence, S. cerevisiae (AID 602378). Background: The purpose of a counterscreen is to sort out artefacts and off-target activity.
Regarding `O=C(Nc1ccc(-c2cn3ccccc3n2)cc1)c1cccs1`, the IC50 is > 99 µM (inactive). The figure for `CCCN(C(=O)c1ccc([N+](=O)[O-])c(C)c1)c1c(N)n(Cc2ccccc2)c(=O)[nH]c1=O` is 1.08 µM; for `Cc1noc(C)c1S(=O)(=O)Nc1ccc(-c2cn3c(n2)SCC3)cc1` it is > 99 µM (inactive); for `O=C(Nc1nc2ccccc2s1)C1CCCN1S(=O)(=O)c1ccc(Cl)cc1` (stereo not given) it is 13.1 µM.

As for `Cc1ccc2nc(N3C(=O)CNC3=S)sc2c1`, the IC50 was 13 µM. The figure for `CC(C)Cn1cnc2c(c(-c3ccccc3)c(-c3ccccc3)n2Cc2ccco2)c1=N` is 16.8 µM; for `Cc1ccc(/C(N)=N/OC(=O)c2ccccc2)cc1F` it is 1.12 µM; for `CCOc1ccc2nc(N3C(=O)CNC3=S)sc2c1` it is > 99 µM (inactive). The figure for `N/C(=N\OC(=O)c1cccc2ccccc12)c1ccc(Cl)cc1` is 1.03 µM; for `Cc1nn(Cc2cccc(C(=O)O/N=C(\N)c3ccc(Cl)cc3)c2)c(C)c1Br` it is 1.51 µM; for `O=C(CSc1cccc[n+]1[O-])Nc1ccccc1Oc1ccccc1` it is 0.949 µM. The figure for `O=c1cc(CSc2ccc(S(=O)(=O)N3CCCCC3)cn2)nc2ccc(Br)cn12` is > 99 µM (inactive). For the molecule `CC(C)(C)c1csc(NC(=O)c2ccc(Cl)s2)n1`, the 50% inhibitory concentration (IC50) was 54.7 µM. On to `Oc1ccc(Oc2ccc(Oc3ccc(O)cc3)cc2)cc1`, for which the IC50 was 25.6 µM. The figure for `Cc1ccc(OCC(=O)O/N=C(\N)Cc2ccc(Cl)cc2)cc1` is 2.57 µM; for `Cc1c2c(n(Cc3ccco3)c1C)N=CN1CCS(=O)(=O)N=C21` it is > 99 µM (inactive).

Regarding `CC(=O)c1ccc(NS(=O)(=O)c2c(C)nc3scc(C)n3c2=O)cc1`, the IC50 is > 99 µM (inactive). To `N/C(Cc1cccc2ccccc12)=N\OC(=O)COc1ccc(Cl)cc1Cl` belongs 27.9 µM; to `CCN(C(=O)c1cccc2ncccc12)c1c(N)n(Cc2ccccc2)c(=O)[nH]c1=O`, > 99 µM (inactive). As for `Nc1cccc(Oc2ccc(Oc3cccc(N)c3)cc2)c1`, the IC50 is > 99 µM (inactive). As for `CN1CCc2nc3sc(C(=O)C45CC6CC(CC(C6)C4)C5)c(N)c3cc2C1`, the IC50 is 69.3 µM. To `O=C(N/N=C/C(Cl)=C\c1ccccc1)c1cccs1` belongs 42.7 µM; to `CCCCOc1ccc(C(=O)O/N=C(\N)c2cccc(Br)c2)cc1`, 1.09 µM; to `N/C(=N\OC(=O)c1ccc2ccccc2c1)c1ccc(I)cc1`, > 99 µM (inactive). To `Cc1ccc(-c2nc3ccc(NC(=O)c4cccs4)cc3[nH]2)o1` belongs 16.4 µM; to `Cc1nc2scc(C)n2c(=O)c1S(=O)(=O)Nc1ccccc1`, 66.9 µM; to `N#Cc1c(-c2ccccc2)cc(-c2ccc(O)cc2)nc1N`, 10.3 µM. `Cc1nc2scc(C)n2c(=O)c1S(=O)(=O)Nc1ccc(N2CCN(C(=O)C(C)C)CC2)cc1`: the IC50 was > 99 µM (inactive). The figure for `Cc1nc2scc(C)n2c(=O)c1S(=O)(=O)Nc1ccc(Oc2ccc(Cl)cc2)cc1` is > 99 µM (inactive). The figure for `Cc1nc2scc(C)n2c(=O)c1S(=O)(=O)Nc1cc(C(F)(F)F)ccc1Cl` is > 99 µM (inactive); for `Cc1nc2scc(C)n2c(=O)c1S(=O)(=O)Nc1ccc(OC(F)(F)F)cc1` it is 26.5 µM; for `O=c1cc(CSc2ccc(S(=O)(=O)N3CCOCC3)cn2)nc2ccc(Br)cn12` it is 77.4 µM.

Regarding `Cc1cc(OCC(=O)O/N=C(\N)Cc2ccc(Cl)cc2)ccc1Br`, the IC50 is 3.28 µM. The figure for `N/C(=N\OC(=O)c1ccc(Cl)cc1)c1cccc(CS(=O)(=O)c2ccccn2)c1` is 14 µM; for `Cc1csc(NC(=O)c2sc3nc4c(cc3c2N)CN(C)CC4)n1` it is > 99 µM (inactive); for `COc1cc2c(cc1OC)/C(=C/c1ccc(Cl)cc1)C(=O)OC2` it is 10.8 µM.

Take `Cc1ccc2nc(CS(=O)(=O)c3ncccc3Cl)cc(=O)n2c1`: the IC50 was > 99 µM (inactive). The figure for `Cc1ccc(Nc2nc(-c3cccnc3)nc3ccccc23)cc1` is 14.1 µM; for `C=C1CCc2c([nH]c3ccc(OCC(C)C)cc23)C1=O` it is > 99 µM (inactive); for `CCOc1ccc(NS(=O)(=O)c2c(C)nc3scc(C)n3c2=O)cc1` it is > 99 µM (inactive). To `COc1ccc(/C=C/C(=O)Nc2ccc3c(c2)CCC3)cc1OC` belongs 17.5 µM; to `Cc1nc2scc(C)n2c(=O)c1S(=O)(=O)Nc1ccc(N2CCN(S(C)(=O)=O)CC2)cc1`, > 99 µM (inactive); to `Cc1nc2scc(C)n2c(=O)c1S(=O)(=O)Nc1ccc(N2CCOCC2)cc1`, > 99 µM (inactive). To `CS(=O)(=O)Nc1ccc(/C(N)=N/OC(=O)c2ccccc2Cl)cc1` belongs > 99 µM (inactive); to `CC1(C)C=Cc2cc(/C(N)=N/OC(=O)c3ccccc3)ccc2O1`, 0.66 µM; to `O=C(Nc1ccn[nH]1)c1cccc(OCc2cccnc2)c1`, > 99 µM (inactive). For `COc1ccc(Cl)cc1NS(=O)(=O)c1c(C)nc2scc(C)n2c1=O`, the IC50 is > 99 µM (inactive). On to `NC(=O)C1CCN(c2nc(-c3cccnc3)nc3ccccc23)CC1`, for which the IC50 is > 99 µM (inactive).

In the case of `O=C1OC(c2ccccc2)=N/C1=C\C=C\c1ccco1`, the IC50 is 3.62 µM. `Cc1ccc2nc(CSc3ccc(S(=O)(=O)N4CCCC4)cn3)cc(=O)n2c1`: the IC50 was > 99 µM (inactive).

For the molecule `N#C/C(=C\c1ccc(Cl)cc1)C(=O)Nc1cccnc1`, the IC50 was 25.6 µM. The figure for `CCOc1cc2ccccc2cc1C(=O)O/N=C(\N)c1ccc(Cl)cc1` is 1.61 µM; for `O=C(Nc1ccc2nc(-c3ccc(Br)o3)[nH]c2c1)c1cccs1` it is 24.6 µM; for `N/C(=N\OC(=O)c1ccccc1)c1ccc(F)cc1F` it is 6.71 µM.

With `Cc1nc2scc(C)n2c(=O)c1S(=O)(=O)Nc1cccc(O)c1`, the IC50 is > 99 µM (inactive).

Regarding `Cc1nc2scc(C)n2c(=O)c1S(=O)(=O)Nc1ccc(N2CCOCC2)c(Cl)c1`, the IC50 is > 99 µM (inactive). To `N/C(=N\OC(=O)c1ccc(Cl)cc1)c1ccc(Cl)cc1` belongs 1.1 µM; to `O=C(CSCc1ccccc1)Nc1cc(S(=O)(=O)N2CCOCC2)ccc1Oc1ccccc1`, > 99 µM (inactive); to `Cc1ccc(-c2nn(-c3ccccc3)cc2NC(=O)CCl)cc1`, 1.88 µM. To `CC(=O)c1ccc2[nH]c3c(c2c1)CCCC3=O` belongs > 99 µM (inactive).
